{"source": "the supplement of paper PMC13380429", "key": {"[1]": {"system": "Caco-2", "test": "relative viability EC50 (midpoint between 100% and the lowest measured viability); higher = less toxic", "conditions": "72 h"}, "[2]": {"system": "Vero E6", "test": "relative viability EC50 (midpoint between 100% and the lowest measured viability); higher = less toxic", "conditions": "72 h"}, "[3]": {"system": "Caco-2", "test": "drug sensitivity score (DSS) for viability; higher = more toxic; extreme values may be limits of the assay", "conditions": "72 h"}, "[4]": {"system": "Vero E6", "test": "drug sensitivity score (DSS) for viability; higher = more toxic; extreme values may be limits of the assay", "conditions": "72 h"}, "[5]": {"system": "U2OS", "test": "drug sensitivity score (DSS) for viability; higher = more toxic; extreme values may be limits of the assay", "conditions": "72 h"}, "[6]": {"system": "HepG2", "test": "drug sensitivity score (DSS) for viability; higher = more toxic; extreme values may be limits of the assay", "conditions": "72 h"}, "[7]": {"system": "A549-ACE2 infected with SARS-CoV-2", "test": "morphology score (similarity to uninfected cells); higher = more like uninfected cells", "conditions": "24 h"}, "[8]": {"system": "A549-ACE2", "test": "drug-induced phospholipidosis relative to tamoxifen; higher = more phospholipidosis"}, "[9]": {"system": "A549-ACE2 infected with SARS-CoV-2", "test": "SARS-CoV-2 infection rate relative to DMSO; higher = more infection", "conditions": "24 h"}, "[10]": {"system": "A549-ACE2 infected with SARS-CoV-2", "test": "cell count relative to DMSO; higher = less toxic", "conditions": "24 h"}, "[11]": {"system": "Caco-2", "test": "cell viability relative to DMSO; higher = less toxic", "conditions": "72 h"}, "[12]": {"system": "Vero E6", "test": "cell viability relative to DMSO; higher = less toxic", "conditions": "72 h"}, "[13]": {"system": "U2OS", "test": "cell viability relative to DMSO; higher = less toxic", "conditions": "72 h"}, "[14]": {"system": "HepG2", "test": "cell viability relative to DMSO; higher = less toxic", "conditions": "72 h"}, "[15]": {"system": "HepG2", "test": "relative viability EC50 (midpoint between 100% and the lowest measured viability); higher = less toxic", "conditions": "72 h"}, "[16]": {"system": "Calu-3", "test": "drug sensitivity score (DSS) for viability; higher = more toxic; extreme values may be limits of the assay", "conditions": "72 h"}, "[17]": {"system": "Calu-3", "test": "cell viability relative to DMSO; higher = less toxic", "conditions": "72 h"}}}
{"smiles": "O=C(c1ccc(/C=C/c2n[nH]c3ccccc23)cc1)N1CCNCC1", "note": "[KW-2449]", "values": [{"measurement": "relative viability EC50", "setting": "[1]", "result": "> 10", "unit": "µM"}, {"measurement": "relative viability EC50", "setting": "[2]", "result": "> 10", "unit": "µM"}, {"measurement": "drug sensitivity score", "setting": "[3]", "result": 0}, {"measurement": "drug sensitivity score", "setting": "[4]", "result": 0}, {"measurement": "drug sensitivity score", "setting": "[5]", "result": 1.7}, {"measurement": "drug sensitivity score", "setting": "[6]", "result": 2.2}, {"measurement": "morphology score", "setting": "[7]; 0.3 µM", "result": 0.33}, {"measurement": "morphology score", "setting": "[7]; 3 µM", "result": 0.51}, {"measurement": "morphology score", "setting": "[7]; 10 µM", "result": 0.62}, {"measurement": "morphology score", "setting": "[7]; 30 µM", "result": 0.12}, {"measurement": "drug-induced phospholipidosis", "setting": "[8]; 0.3 µM, 24 h", "result": -0.51, "unit": "%"}, {"measurement": "drug-induced phospholipidosis", "setting": "[8]; 0.3 µM, 48 h", "result": -1.26, "unit": "%"}, {"measurement": "drug-induced phospholipidosis", "setting": "[8]; 0.3 µM, 72 h", "result": -0.724, "unit": "%"}, {"measurement": "drug-induced phospholipidosis", "setting": "[8]; 0.833333 µM, 24 h", "result": -0.69, "unit": "%"}, {"measurement": "drug-induced phospholipidosis", "setting": "[8]; 0.833333 µM, 48 h", "result": -3.23, "unit": "%"}, {"measurement": "drug-induced phospholipidosis", "setting": "[8]; 0.833333 µM, 72 h", "result": -3.37, "unit": "%"}, {"measurement": "drug-induced phospholipidosis", "setting": "[8]; 3.33333 µM, 24 h", "result": 3.6, "unit": "%"}, {"measurement": "drug-induced phospholipidosis", "setting": "[8]; 3.33333 µM, 48 h", "result": 0.95, "unit": "%"}, {"measurement": "drug-induced phospholipidosis", "setting": "[8]; 6.66667 µM, 24 h", "result": 13.3, "unit": "%"}, {"measurement": "drug-induced phospholipidosis", "setting": "[8]; 6.66667 µM, 48 h", "result": 9.27, "unit": "%"}, {"measurement": "drug-induced phospholipidosis", "setting": "[8]; 10 µM, 24 h", "result": 8.57, "unit": "%"}, {"measurement": "drug-induced phospholipidosis", "setting": "[8]; 10 µM, 48 h", "result": 0.37, "unit": "%"}, {"measurement": "SARS-CoV-2 infection rate", "setting": "[9]; 0.3 µM", "result": 98, "unit": "%"}, {"measurement": "SARS-CoV-2 infection rate", "setting": "[9]; 3 µM", "result": 79, "unit": "%"}, {"measurement": "SARS-CoV-2 infection rate", "setting": "[9]; 10 µM", "result": 26, "unit": "%"}, {"measurement": "SARS-CoV-2 infection rate", "setting": "[9]; 30 µM", "result": 40, "unit": "%"}, {"measurement": "cell count", "setting": "[10]; 0.3 µM", "result": 105, "unit": "%"}, {"measurement": "cell count", "setting": "[10]; 3 µM", "result": 59, "unit": "%"}, {"measurement": "cell count", "setting": "[10]; 10 µM", "result": 39, "unit": "%"}, {"measurement": "cell count", "setting": "[10]; 30 µM", "result": 1, "unit": "%"}, {"measurement": "cell viability", "setting": "[11]; 1 nM", "result": 98.7, "unit": "%"}, {"measurement": "cell viability", "setting": "[11]; 10 nM", "result": 98.6, "unit": "%"}, {"measurement": "cell viability", "setting": "[11]; 100 nM", "result": 97.2, "unit": "%"}, {"measurement": "cell viability", "setting": "[11]; 1000 nM", "result": 99, "unit": "%"}, {"measurement": "cell viability", "setting": "[11]; 10000 nM", "result": 108, "unit": "%"}, {"measurement": "cell viability", "setting": "[12]; 1 nM", "result": 103, "unit": "%"}, {"measurement": "cell viability", "setting": "[12]; 10 nM", "result": 104, "unit": "%"}, {"measurement": "cell viability", "setting": "[12]; 100 nM", "result": 99.3, "unit": "%"}, {"measurement": "cell viability", "setting": "[12]; 1000 nM", "result": 101, "unit": "%"}, {"measurement": "cell viability", "setting": "[12]; 10000 nM", "result": 95.3, "unit": "%"}, {"measurement": "cell viability", "setting": "[13]; 1 nM", "result": 103, "unit": "%"}, {"measurement": "cell viability", "setting": "[13]; 10 nM", "result": 102, "unit": "%"}, {"measurement": "cell viability", "setting": "[13]; 100 nM", "result": 101, "unit": "%"}, {"measurement": "cell viability", "setting": "[13]; 1000 nM", "result": 100, "unit": "%"}, {"measurement": "cell viability", "setting": "[13]; 10000 nM", "result": 63.1, "unit": "%"}, {"measurement": "cell viability", "setting": "[14]; 1 nM", "result": 102, "unit": "%"}, {"measurement": "cell viability", "setting": "[14]; 10 nM", "result": 108, "unit": "%"}, {"measurement": "cell viability", "setting": "[14]; 100 nM", "result": 98.6, "unit": "%"}, {"measurement": "cell viability", "setting": "[14]; 1000 nM", "result": 94.6, "unit": "%"}, {"measurement": "cell viability", "setting": "[14]; 10000 nM", "result": 69.6, "unit": "%"}]}
{"smiles": "CC(C)C[C@H](NC(=O)CNC(=O)c1cc(Cl)ccc1Cl)B1OC(=O)C(CC(=O)O)(CC(=O)O)O1", "note": "[MLN9708]", "values": [{"measurement": "relative viability EC50", "setting": "[15]", "result": 0.139, "unit": "µM"}, {"measurement": "drug sensitivity score", "setting": "[3]", "result": 28.8}, {"measurement": "drug sensitivity score", "setting": "[4]", "result": 23.8}, {"measurement": "drug sensitivity score", "setting": "[5]", "result": 24.7}, {"measurement": "drug sensitivity score", "setting": "[6]", "result": 22.1}, {"measurement": "drug sensitivity score", "setting": "[16]", "result": 27.3}, {"measurement": "morphology score", "setting": "[7]; 0.1 µM", "result": 0.35}, {"measurement": "morphology score", "setting": "[7]; 0.3 µM", "result": 0.28}, {"measurement": "morphology score", "setting": "[7]; 1 µM", "result": 0.27}, {"measurement": "morphology score", "setting": "[7]; 3 µM", "result": 0.28}, {"measurement": "drug-induced phospholipidosis", "setting": "[8]; 0.3 µM, 24 h", "result": 4.58, "unit": "%"}, {"measurement": "drug-induced phospholipidosis", "setting": "[8]; 0.833333 µM, 24 h", "result": -2.83, "unit": "%"}, {"measurement": "SARS-CoV-2 infection rate", "setting": "[9]; 0.1 µM", "result": 88, "unit": "%"}, {"measurement": "SARS-CoV-2 infection rate", "setting": "[9]; 0.3 µM", "result": 83, "unit": "%"}, {"measurement": "SARS-CoV-2 infection rate", "setting": "[9]; 1 µM", "result": 48, "unit": "%"}, {"measurement": "SARS-CoV-2 infection rate", "setting": "[9]; 3 µM", "result": 33, "unit": "%"}, {"measurement": "cell count", "setting": "[10]; 0.1 µM", "result": 88, "unit": "%"}, {"measurement": "cell count", "setting": "[10]; 0.3 µM", "result": 78, "unit": "%"}, {"measurement": "cell count", "setting": "[10]; 1 µM", "result": 65, "unit": "%"}, {"measurement": "cell count", "setting": "[10]; 3 µM", "result": 57, "unit": "%"}, {"measurement": "cell viability", "setting": "[11]; 1 nM", "result": 99.6, "unit": "%"}, {"measurement": "cell viability", "setting": "[11]; 10 nM", "result": 94.6, "unit": "%"}, {"measurement": "cell viability", "setting": "[11]; 100 nM", "result": 11.4, "unit": "%"}, {"measurement": "cell viability", "setting": "[11]; 1000 nM", "result": 5.1, "unit": "%"}, {"measurement": "cell viability", "setting": "[11]; 10000 nM", "result": 5, "unit": "%"}, {"measurement": "cell viability", "setting": "[12]; 1 nM", "result": 97, "unit": "%"}, {"measurement": "cell viability", "setting": "[12]; 10 nM", "result": 99.5, "unit": "%"}, {"measurement": "cell viability", "setting": "[12]; 100 nM", "result": 44.1, "unit": "%"}, {"measurement": "cell viability", "setting": "[12]; 1000 nM", "result": 10.5, "unit": "%"}, {"measurement": "cell viability", "setting": "[12]; 10000 nM", "result": 4.8, "unit": "%"}, {"measurement": "cell viability", "setting": "[13]; 1 nM", "result": 101, "unit": "%"}, {"measurement": "cell viability", "setting": "[13]; 10 nM", "result": 95.8, "unit": "%"}, {"measurement": "cell viability", "setting": "[13]; 100 nM", "result": 43.2, "unit": "%"}, {"measurement": "cell viability", "setting": "[13]; 1000 nM", "result": 0.5, "unit": "%"}, {"measurement": "cell viability", "setting": "[13]; 10000 nM", "result": 0, "unit": "%"}, {"measurement": "cell viability", "setting": "[14]; 1 nM", "result": 89.6, "unit": "%"}, {"measurement": "cell viability", "setting": "[14]; 10 nM", "result": 104, "unit": "%"}, {"measurement": "cell viability", "setting": "[14]; 100 nM", "result": 65, "unit": "%"}, {"measurement": "cell viability", "setting": "[14]; 1000 nM", "result": 4.3, "unit": "%"}, {"measurement": "cell viability", "setting": "[14]; 10000 nM", "result": 0.5, "unit": "%"}, {"measurement": "cell viability", "setting": "[17]; 1 nM", "result": 95.1, "unit": "%"}, {"measurement": "cell viability", "setting": "[17]; 10 nM", "result": 95.1, "unit": "%"}, {"measurement": "cell viability", "setting": "[17]; 100 nM", "result": 19.6, "unit": "%"}, {"measurement": "cell viability", "setting": "[17]; 1000 nM", "result": 6.6, "unit": "%"}, {"measurement": "cell viability", "setting": "[17]; 10000 nM", "result": 5.2, "unit": "%"}]}
